Read-outs that look alike come from different tables or passages of the source.
Tests used:
[1] = test system: Powdery Mildew (Podosphaera xanthii); assay: Single leaf test powdery mildew on zucchini; details: zucchini leaf N sprayed with 0.8% in water; 8 days after the treatment
Description: Single leaf test Powdery Mildew (Podosphaera xanthii). A zucchini plant was selected with a powdery mildew infection on old leaves. In addition to a leaf showing the first signs of infection of powdery mildew (leaf N−1), two leaves without infection (leaf N and N+1) were selected.
Leaves (N+1) and (N−1) were left untreated. The fungal infection was assessed 8 days after the treatment.

[2] = test system: Fusarium graminearum; assay type: cell-based; details: 6 days at 25° C; for Average mycellium diameter: n = 4; for % inhibition of the pathogens: vs untreated PDA
[3] = test system: Phytophthora infestans; assay type: in vivo; details: 1 min dip, 7 days of incubation; for Lesion Size: n = 5
[4] = test system: Botrytis cinerea (lettuce); assay: Mycelium growth inhibition on PDA (Example 2); assay type: cell-based; details: 6 days at 25° C; for Average mycellium diameter: n = 4; for % inhibition of the pathogens: vs untreated PDA
Description: (§1) Strains used for this trial (Table 3) were kept and refreshed on Potato Dextrose Agar (PDA) at 25° C.
(§2) In a first setup, a test composition was directly added to PDA (about 20 mL/petri dish) (Table 4). Plugs of agar (diameter 8 mm) from two week-old cultures were placed at the center of the PDA plates. Each test was performed in 4 repetitions. The petri dishes were then incubated at 25° C. After 6 days of incubation, the diameter of the colonies was measured in 2 perpendicular directions. The percentage of inhibition was calculated for each tested composition and compared to the untreated PDA.

[5] = test system: Colletotrichum coccodes; assay: Mycelium growth inhibition on PDA (Example 2); assay type: cell-based; details: 6 days at 25° C; for Average mycellium diameter: n = 4; for % inhibition of the pathogens: vs untreated PDA
Description: as §1, §2

[6] = test system: Botrytis cinerea (grapevine); assay: Mycelium growth inhibition on PDA (Example 2); assay type: cell-based; details: 6 days at 25° C; for Average mycellium diameter: n = 4; for % inhibition of the pathogens: vs untreated PDA
Description: as §1, §2

[7] = test system: Alternaria solani; assay: Mycelium growth inhibition on PDA (Example 2); assay type: cell-based; details: 6 days at 25° C; for Average mycellium diameter: n = 4; for % inhibition of the pathogens: vs untreated PDA
Description: as §1, §2

[8] = dose rate 1 L·kg/ha (0.2 mL in 100 mL water)
[9] = dose rate 10 L·kg/ha (2 mL in 100 mL water)

**Q.** Which “surface of leaf covered by powdery mildew” value [1] does the source give for `CCCCCCCCC(=O)[O-].C[N+](C)(C)CCO` [Choline pelargonate, choline pelargonate] here?
**A.** less than 5%

**Q.** And the Average mycellium diameter ([2]; 0.36% AI in PDA)?
**A.** 17.6 ± 21.1 mm

**Q.** And the “% inhibition of the pathogens” value ([2]; 0.36% AI in PDA)?
**A.** 77%

**Q.** What about the Average mycellium diameter ([2]; 3.6% AI in PDA) of the same compound?
**A.** 0.0 ± 0.0 mm

**Q.** And the “% inhibition of the pathogens” value ([2]; 3.6% AI in PDA)?
**A.** 100%

**Q.** What about the “Efficacy (%) (Abbott)” value [3, 8] of the same compound?
**A.** 84.9%

**Q.** What about the “Lesion Size” value [3, 8] of the same compound?
**A.** 0.41 ± 0.57 cm^2

**Q.** And the “Efficacy (%) (Abbott)” value [3, 9]?
**A.** 100.0%

**Q.** What about the “Lesion Size” value [3, 9] of the same compound?
**A.** 0.00 ± 0.00 cm^2

**Q.** What about the Average mycellium diameter ([4]; 0.36% AI in PDA) of the same compound?
**A.** 0.0 ± 0.0 mm

**Q.** And the “% inhibition of the pathogens” value ([4]; 0.36% AI in PDA)?
**A.** 100%

**Q.** And the Average mycellium diameter ([4]; 3.6% AI in PDA)?
**A.** 0.0 ± 0.0 mm

**Q.** And the “% inhibition of the pathogens” value ([4]; 3.6% AI in PDA)?
**A.** 100%

**Q.** And the Average mycellium diameter ([5]; 0.36% AI in PDA)?
**A.** 0.0 ± 0.0 mm

**Q.** And the “% inhibition of the pathogens” value ([5]; 0.36% AI in PDA)?
**A.** 100%

**Q.** And the Average mycellium diameter ([5]; 3.6% AI in PDA)?
**A.** 0.0 ± 0.0 mm

**Q.** And the “% inhibition of the pathogens” value ([5]; 3.6% AI in PDA)?
**A.** 100%

**Q.** What about the Average mycellium diameter ([6]; 0.36% AI in PDA) of the same compound?
**A.** 0.0 ± 0.0 mm

**Q.** What about the “% inhibition of the pathogens” value ([6]; 0.36% AI in PDA) of the same compound?
**A.** 100%

**Q.** What about the Average mycellium diameter ([6]; 3.6% AI in PDA) of the same compound?
**A.** 0.0 ± 0.0 mm

**Q.** And the “% inhibition of the pathogens” value ([6]; 3.6% AI in PDA)?
**A.** 100%

**Q.** And the Average mycellium diameter ([7]; 0.36% AI in PDA)?
**A.** 0.0 ± 0.0 mm

**Q.** And the “% inhibition of the pathogens” value ([7]; 0.36% AI in PDA)?
**A.** 100%

**Q.** And the Average mycellium diameter ([7]; 3.6% AI in PDA)?
**A.** 0.0 ± 0.0 mm

**Q.** What about the “% inhibition of the pathogens” value ([7]; 3.6% AI in PDA) of the same compound?
**A.** 100%

From patent US12446577B2 (priority 2018, dated 2025)
